According to patent publication US10670605B2, “Cysteine reactive probes and uses thereof” (The Scripps Research Institute, priority 2015, dated 2020):

Experiments:
Experiment in all cases: Competitive isoTOP-ABPP in situ (fragment-treated cells)
Assay type in all cases: cell-based
[1] = target: T1, cysteines in MDA-MB-231 and Ramos cells (Homo sapiens, UniProt Q9NQC3)
T1 sequence (Q9NQC3 1-1192): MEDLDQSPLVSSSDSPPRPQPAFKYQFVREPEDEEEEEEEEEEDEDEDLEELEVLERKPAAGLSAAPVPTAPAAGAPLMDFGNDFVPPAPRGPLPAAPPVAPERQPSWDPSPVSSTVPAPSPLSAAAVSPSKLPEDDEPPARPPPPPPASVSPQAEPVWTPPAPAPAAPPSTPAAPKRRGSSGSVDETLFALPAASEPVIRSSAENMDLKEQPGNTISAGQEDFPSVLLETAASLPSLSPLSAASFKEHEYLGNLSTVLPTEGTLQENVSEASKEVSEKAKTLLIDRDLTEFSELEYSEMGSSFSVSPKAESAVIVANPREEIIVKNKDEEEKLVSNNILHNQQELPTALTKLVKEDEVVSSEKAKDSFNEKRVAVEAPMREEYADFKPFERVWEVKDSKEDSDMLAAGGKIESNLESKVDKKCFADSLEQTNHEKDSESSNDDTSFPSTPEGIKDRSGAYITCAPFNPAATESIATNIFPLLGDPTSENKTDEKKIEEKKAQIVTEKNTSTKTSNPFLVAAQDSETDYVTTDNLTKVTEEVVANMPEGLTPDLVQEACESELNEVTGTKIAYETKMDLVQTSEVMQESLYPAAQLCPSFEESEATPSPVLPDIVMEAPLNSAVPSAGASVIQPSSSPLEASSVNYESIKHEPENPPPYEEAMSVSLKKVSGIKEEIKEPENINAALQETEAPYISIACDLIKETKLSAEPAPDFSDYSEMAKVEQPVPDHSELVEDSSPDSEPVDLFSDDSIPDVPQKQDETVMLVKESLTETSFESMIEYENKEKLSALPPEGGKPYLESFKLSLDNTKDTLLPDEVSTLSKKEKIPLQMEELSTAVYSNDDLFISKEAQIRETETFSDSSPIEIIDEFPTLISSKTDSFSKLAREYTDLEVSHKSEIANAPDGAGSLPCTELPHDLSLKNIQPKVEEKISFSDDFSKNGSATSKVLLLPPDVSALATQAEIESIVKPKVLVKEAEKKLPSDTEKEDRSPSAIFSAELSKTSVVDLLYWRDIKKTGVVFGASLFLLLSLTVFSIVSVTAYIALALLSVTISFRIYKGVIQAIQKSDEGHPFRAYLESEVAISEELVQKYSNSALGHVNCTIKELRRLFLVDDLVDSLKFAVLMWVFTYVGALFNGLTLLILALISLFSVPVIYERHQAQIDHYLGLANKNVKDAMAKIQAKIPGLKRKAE

[2] = target: T2, cysteines in MDA-MB-231 and Ramos cells (Homo sapiens, UniProt Q86SX6)
T2 sequence (Q86SX6 32-157): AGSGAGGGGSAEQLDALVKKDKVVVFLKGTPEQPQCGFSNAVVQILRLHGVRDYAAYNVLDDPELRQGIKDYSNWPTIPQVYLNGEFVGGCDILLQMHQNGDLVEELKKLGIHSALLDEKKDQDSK

[3] = target: cysteines in MDA-MB-231 and Ramos cells (Homo sapiens, UniProt Q9NUY8)
Chain of cysteines in MDA-MB-231 and Ramos cells (Homo sapiens, UniProt Q9NUY8) (Q9NUY8 whole entry): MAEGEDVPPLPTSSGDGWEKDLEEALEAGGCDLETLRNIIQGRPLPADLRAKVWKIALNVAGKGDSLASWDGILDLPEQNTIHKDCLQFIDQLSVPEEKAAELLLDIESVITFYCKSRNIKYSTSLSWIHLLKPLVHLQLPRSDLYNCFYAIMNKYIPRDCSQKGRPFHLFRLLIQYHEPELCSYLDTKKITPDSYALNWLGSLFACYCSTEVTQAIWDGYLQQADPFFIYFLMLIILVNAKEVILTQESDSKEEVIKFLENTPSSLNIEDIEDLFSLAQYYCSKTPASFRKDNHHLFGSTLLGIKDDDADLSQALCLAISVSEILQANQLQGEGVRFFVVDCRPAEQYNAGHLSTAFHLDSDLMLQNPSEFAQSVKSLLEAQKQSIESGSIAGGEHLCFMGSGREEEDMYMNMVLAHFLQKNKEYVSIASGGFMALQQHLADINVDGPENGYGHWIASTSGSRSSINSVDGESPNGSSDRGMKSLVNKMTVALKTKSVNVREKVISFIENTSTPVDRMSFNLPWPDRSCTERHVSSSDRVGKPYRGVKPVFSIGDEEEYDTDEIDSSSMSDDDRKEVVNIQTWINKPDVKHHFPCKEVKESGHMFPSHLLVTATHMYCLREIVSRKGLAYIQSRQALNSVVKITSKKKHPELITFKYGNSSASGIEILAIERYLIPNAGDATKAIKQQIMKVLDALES

[4] = target: T3, cysteines in MDA-MB-231 and Ramos cells (Homo sapiens, UniProt Q96S55)
T3 sequence (Q96S55 1-665): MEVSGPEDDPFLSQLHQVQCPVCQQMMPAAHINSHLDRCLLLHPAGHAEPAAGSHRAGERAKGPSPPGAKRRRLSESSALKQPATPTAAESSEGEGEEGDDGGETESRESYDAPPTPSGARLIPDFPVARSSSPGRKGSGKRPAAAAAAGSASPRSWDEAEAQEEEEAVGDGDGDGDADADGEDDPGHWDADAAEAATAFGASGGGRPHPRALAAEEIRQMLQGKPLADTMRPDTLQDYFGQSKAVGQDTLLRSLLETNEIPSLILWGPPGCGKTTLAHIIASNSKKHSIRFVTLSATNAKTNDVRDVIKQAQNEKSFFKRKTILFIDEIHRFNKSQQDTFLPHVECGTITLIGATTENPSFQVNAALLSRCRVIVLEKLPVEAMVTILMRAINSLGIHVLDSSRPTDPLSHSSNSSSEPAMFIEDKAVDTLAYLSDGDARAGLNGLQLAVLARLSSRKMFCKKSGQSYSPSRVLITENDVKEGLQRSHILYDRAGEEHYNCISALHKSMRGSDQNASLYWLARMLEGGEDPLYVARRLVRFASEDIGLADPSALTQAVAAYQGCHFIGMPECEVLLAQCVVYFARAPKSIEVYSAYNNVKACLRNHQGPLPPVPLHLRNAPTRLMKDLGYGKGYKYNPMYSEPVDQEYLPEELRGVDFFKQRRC

[5] = target: T4, cysteines in MDA-MB-231 and Ramos cells (Homo sapiens, UniProt Q9Y3A3)
T4 sequence (Q9Y3A3 1-225): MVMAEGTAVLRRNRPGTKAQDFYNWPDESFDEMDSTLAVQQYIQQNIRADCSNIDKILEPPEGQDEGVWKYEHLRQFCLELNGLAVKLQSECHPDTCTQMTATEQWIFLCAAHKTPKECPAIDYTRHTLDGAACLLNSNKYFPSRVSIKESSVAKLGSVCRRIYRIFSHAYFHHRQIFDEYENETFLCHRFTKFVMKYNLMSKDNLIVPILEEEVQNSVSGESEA

SMILES	isoTOP-ABPP ratio Q9NQC3_C1101 ([1]; 200 μM, insitu, 231)	isoTOP-ABPP ratio Q86SX6_C67 ([2]; 200 μM, insitu, 231)	isoTOP-ABPP ratio Q9NUY8_C283 ([3]; 200 μM, insitu, 231)	isoTOP-ABPP ratio Q96S55_C272 ([4]; 200 μM, insitu, 231)	isoTOP-ABPP ratio Q9Y3A3_C134 ([5]; 200 μM, insitu, 231)	also measured
COc1ccc2c(c1)CCCN2C(=O)CCl [compound 2]	–	–	–	–	–	isoTOP-ABPP reactivity Q9NQC3_C1101 RTN4 ([1]; 200 μM, insitu, 231): 12.0; isoTOP-ABPP reactivity Q865X6_C67 GLRX5 ([2]; 200 μM, insitu, 231): 1.1; isoTOP-ABPP reactivity Q9NUY8_C283 TBC1D23 ([3]; 200 μM, insitu, 231): 4.1; isoTOP-ABPP reactivity Q96S55_C272 WRNIP1 ([4]; 200 μM, insitu, 231): 2.2
CC(C)CCOCCNC(=O)CCl [compound 27]	1.4	1.5	0.6	0.9	–	–
O=C(CCl)NC(=O)NC12CC3CC(CC(C3)C1)C2 [compound 12]	20.0	1.6	2.9	2.4	1.4	–
O=C(CCl)NC12CC3CC(CC(C3)C1)C2 [compound 21]	2.1	1.4	0.8	1.3	–	–
Cc1ccc(C=C(C#N)C(=O)NCCN2CCOCC2)cc1 [compound 41]	1.0	1.0	0.7	0.8	0.9	–
Cn1cc(S(=O)(=O)N2CCOCC2)cc1C(=O)NC(=O)CCl [compound 11]	–	–	–	–	–	isoTOP-ABPP ratio Q9NQC3_C1101 ([1]; 100 μM in situ 231): 1.1; isoTOP-ABPP ratio Q86SX6_C67 ([2]; 100 μM in situ 231): 1.4; isoTOP-ABPP ratio Q9Y3A3_C134 ([5]; 100 μM in situ 231): 1.8; isoTOP-ABPP ratio Q9NUY8_C283 ([3]; 100 μM in situ 231): 1.1
O=C(CCl)Nc1cccc2ncccc12 [compound 51]	1.2	1.0	2.1	0.9	–	–
C=CC(=O)Nc1cc(F)c(N2CCN(C(=O)OC(C)(C)C)CC2)c(F)c1 [compound 38]	20.0	1.0	1.0	1.3	1.0	–
COc1cc2c(cc1OC)CN(C(=O)CCl)CC2 [compound 8]	–	–	–	–	–	isoTOP-ABPP reactivity Q865X6_C67 GLRX5 ([2]; 200 μM, insitu, 231): 1.0; isoTOP-ABPP reactivity Q9Y3A3_C134 MOB4 ([5]; 200 μM, insitu, 231): 1.6; isoTOP-ABPP reactivity Q9NUY8_C283 TBC1D23 ([3]; 200 μM, insitu, 231): 4.9; isoTOP-ABPP reactivity Q96S55_C272 WRNIP1 ([4]; 200 μM, insitu, 231): 1.2
C=CC(=O)N(Cc1cccnc1)c1cc(C(F)(F)F)cc(C(F)(F)F)c1 [compound 31]	12.8	–	0.6	–	1.0	isoTOP-ABPP ratio Q86SX6_C67 ([2]; 200 μM, insitu, ramos): 0.7; isoTOP-ABPP ratio Q9Y3A3_C134 ([5]; 200 μM, insitu, ramos): 1.8
O=C(CCl)NCCc1c[nH]c2ccccc12 [compound 13]	–	10.3	1.1	0.7	–	isoTOP-ABPP ratio Q86SX6_C67 ([2]; 200 μM, insitu, ramos): 12.4; isoTOP-ABPP ratio Q9Y3A3_C134 ([5]; 200 μM, insitu, ramos): 1.9; isoTOP-ABPP ratio Q9NUY8_C283 ([3]; 200 μM, insitu, ramos): 1.1
O=C(CCl)N1CCC(Cc2ccccc2)CC1 [compound 9]	–	–	–	–	–	isoTOP-ABPP reactivity Q9NQC3_C1101 RTN4 ([1]; 200 μM, insitu, 231): 20.0; isoTOP-ABPP reactivity Q865X6_C67 GLRX5 ([2]; 200 μM, insitu, 231): 5.1; isoTOP-ABPP reactivity Q9Y3A3_C134 MOB4 ([5]; 200 μM, insitu, 231): 20.0; isoTOP-ABPP reactivity Q9NUY8_C283 TBC1D23 ([3]; 200 μM, insitu, 231): 2.1; isoTOP-ABPP reactivity Q96S55_C272 WRNIP1 ([4]; 200 μM, insitu, 231): 4.5
COc1ccc(C2CC(c3cccs3)=NN2C(=O)CCl)cc1 (stereo not drawn) [compound 4]	–	–	–	–	–	isoTOP-ABPP reactivity Q9NQC3_C1101 RTN4 ([1]; 100 μM in situ 231): 20.0; isoTOP-ABPP reactivity Q865X6_C67 GLRX5 ([2]; 100 μM in situ 231): 1.4; isoTOP-ABPP reactivity Q9Y3A3_C134 MOB4 ([5]; 100 μM in situ 231): 1.2; isoTOP-ABPP reactivity Q9NUY8_C283 TBC1D23 ([3]; 100 μM in situ 231): 2.1; isoTOP-ABPP reactivity Q96S55_C272 WRNIP1 ([4]; 100 μM in situ 231): 3.7
O=C(CCl)N1CCN(CC(=O)N2CCOCC2)CC1 [compound 29]	–	–	–	–	–	isoTOP-ABPP ratio Q86SX6_C67 ([2]; 200 μM, insitu, ramos): 1.2; isoTOP-ABPP ratio Q9Y3A3_C134 ([5]; 200 μM, insitu, ramos): 1.2; isoTOP-ABPP ratio Q9NUY8_C283 ([3]; 200 μM, insitu, ramos): 1.3

Now from value to compound, other results behind:

isoTOP-ABPP ratio Q9NQC3_C1101 ([1]; 200 μM, insitu, 231)	isoTOP-ABPP ratio Q86SX6_C67 ([2]; 200 μM, insitu, 231)	isoTOP-ABPP ratio Q9NUY8_C283 ([3]; 200 μM, insitu, 231)	isoTOP-ABPP ratio Q96S55_C272 ([4]; 200 μM, insitu, 231)	isoTOP-ABPP ratio Q9Y3A3_C134 ([5]; 200 μM, insitu, 231)	SMILES	also measured
20.0	1.3	2.0	1.2	1.9	O=C(CCl)N1CCN(S(=O)(=O)c2ccccc2F)CC1 [compound 10]	isoTOP-ABPP ratio Q86SX6_C67 ([2]; 200 μM, insitu, ramos): 1.1
–	–	0.7	0.5	–	COc1ccccc1OCCNC(=O)CCl [compound 28]	–
–	9.1	2.7	2.5	2.3	CC1CCc2ccccc2N1C(=O)CCl (stereo not drawn) [compound 45]	–
